Results reported in patent US20220226341A1, “Pharmaceutical Composition for Alzheimer's Disease” (Kyoto University, priority 2019, published 2022).

Assay: Tissue distribution of radioactivity after single intravenous administration of 14C-labeled Compound 1 (blood-brain barrier penetration)
Type: in vivo
Conditions: rats, single iv 5 mg/kg 14C-labeled; for Radioactivity concentration: n = 3
Description: [Testing the Penetration of the Compound Through the Blood-Brain Barrier]
Brain permeability (intracerebral transferability) of Compound 1 was evaluated.
^14C-labeled Compound 1 was intravenously administered once in a dose of 5 mg/kg (3.52 MBq/kg) to rats, and histological distribution (biodistribution) thereof was studied.

SMILES: Fc1ccc(N2CCCCC2)c(NC(=S)c2ccncc2)c1 [Compound 1]
- Radioactivity concentration (Lung, 24 h): 175.43 ng eq. of Compound 1/g or mL
- Radioactivity concentration (Lung, 72 h): 33.55 ng eq. of Compound 1/g or mL
- Radioactivity concentration (Lung, 168 h): 12.98 ng eq. of Compound 1/g or mL
- Radioactivity concentration (Mandibular gland, 5 min): 13355.34 ng eq. of Compound 1/g or mL
- Radioactivity concentration (Mandibular gland, 6 h): 995.48 ng eq. of Compound 1/g or mL
- Radioactivity concentration (Mandibular gland, 24 h): 115.51 ng eq. of Compound 1/g or mL
- Radioactivity concentration (Mandibular gland, 72 h): 8.87 ng eq. of Compound 1/g or mL
- Radioactivity concentration (Mandibular lymph node, 5 min): 5693.66 ng eq. of Compound 1/g or mL
- Radioactivity concentration (Mandibular lymph node, 6 h): 1018.12 ng eq. of Compound 1/g or mL
- Radioactivity concentration (Mandibular lymph node, 24 h): 108.82 ng eq. of Compound 1/g or mL
- Radioactivity concentration (Mandibular lymph node, 72 h): 8.13 ng eq. of Compound 1/g or mL
- Radioactivity concentration (Pancreas, 5 min): 14356.66 ng eq. of Compound 1/g or mL
- Radioactivity concentration (Pancreas, 6 h): 1206.84 ng eq. of Compound 1/g or mL
- Radioactivity concentration (Pancreas, 24 h): 105.62 ng eq. of Compound 1/g or mL
- Radioactivity concentration (Pancreas, 72 h): 7.37 ng eq. of Compound 1/g or mL
- Radioactivity concentration (Prostate gland, 5 min): 5072.42 ng eq. of Compound 1/g or mL
- Radioactivity concentration (Prostate gland, 6 h): 1268.5 ng eq. of Compound 1/g or mL
- Radioactivity concentration (Prostate gland, 24 h): 114.45 ng eq. of Compound 1/g or mL
- Radioactivity concentration (Prostate gland, 72 h): 7.62 ng eq. of Compound 1/g or mL
- Radioactivity concentration (Skeletal muscle, 5 min): 2479.87 ng eq. of Compound 1/g or mL
- Radioactivity concentration (Skeletal muscle, 6 h): 838.23 ng eq. of Compound 1/g or mL
- Radioactivity concentration (Skeletal muscle, 24 h): 97.94 ng eq. of Compound 1/g or mL
- Radioactivity concentration (Skeletal muscle, 72 h): 10.11 ng eq. of Compound 1/g or mL
- Radioactivity concentration (Skin, 5 min): 3889.26 ng eq. of Compound 1/g or mL
- Radioactivity concentration (Skin, 6 h): 2084.85 ng eq. of Compound 1/g or mL
- Radioactivity concentration (Skin, 24 h): 150.1 ng eq. of Compound 1/g or mL
- Radioactivity concentration (Skin, 72 h): 23.26 ng eq. of Compound 1/g or mL
- Radioactivity concentration (Skin, 168 h): 6.57 ng eq. of Compound 1/g or mL
- Radioactivity concentration (Small intestine, 5 min): 6555.86 ng eq. of Compound 1/g or mL
- Radioactivity concentration (Small intestine, 6 h): 1979.83 ng eq. of Compound 1/g or mL
- Radioactivity concentration (Small intestine, 24 h): 156.71 ng eq. of Compound 1/g or mL
- Radioactivity concentration (Small intestine, 72 h): 9.85 ng eq. of Compound 1/g or mL
- Radioactivity concentration (Spleen, 5 min): 6622.6 ng eq. of Compound 1/g or mL
- Radioactivity concentration (Spleen, 6 h): 944.65 ng eq. of Compound 1/g or mL
- Radioactivity concentration (Spleen, 24 h): 113.01 ng eq. of Compound 1/g or mL
- Radioactivity concentration (Spleen, 72 h): 9.68 ng eq. of Compound 1/g or mL
- Radioactivity concentration (Stomach, 5 min): 8261.97 ng eq. of Compound 1/g or mL
- Radioactivity concentration (Stomach, 6 h): 2309.97 ng eq. of Compound 1/g or mL
- Radioactivity concentration (Stomach, 24 h): 227.12 ng eq. of Compound 1/g or mL
- Radioactivity concentration (Testis, 5 min): 2762.22 ng eq. of Compound 1/g or mL
- Radioactivity concentration (Testis, 6 h): 1217.12 ng eq. of Compound 1/g or mL
- Radioactivity concentration (Testis, 24 h): 128.05 ng eq. of Compound 1/g or mL
- Radioactivity concentration (Testis, 72 h): 8.72 ng eq. of Compound 1/g or mL
- Radioactivity concentration (Thymus, 5 min): 5034.15 ng eq. of Compound 1/g or mL
- Radioactivity concentration (Thymus, 6 h): 954.13 ng eq. of Compound 1/g or mL
- Radioactivity concentration (Thymus, 24 h): 97.42 ng eq. of Compound 1/g or mL
- Radioactivity concentration (Thymus, 72 h): 5.22 ng eq. of Compound 1/g or mL
- Radioactivity concentration (Thyroid gland, 5 min): 9550.71 ng eq. of Compound 1/g or mL
- Radioactivity concentration (Thyroid gland, 6 h): 2369.71 ng eq. of Compound 1/g or mL
- Radioactivity concentration (Thyroid gland, 24 h): 793.99 ng eq. of Compound 1/g or mL
- Radioactivity concentration (Thyroid gland, 72 h): 298.2 ng eq. of Compound 1/g or mL
- Radioactivity concentration (Thyroid gland, 168 h): 125.76 ng eq. of Compound 1/g or mL
- Brain permeability (intracerebral transferability) (cerebellum, cerebrum, pituitary gland higher than plasma at 5 minutes): capable of penetrating the brain
